Where “and” joins values, the source holds several entries; their conditions need not be identical. Equal entries are not always repeated.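 Five concentrations, 48 hours, 96-well plates. At the GI50, growth is halved. TGI marks complete inhibition of growth.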
Tests used:
Assay in all cases: NCI tumour cell line growth inhibition, 48 h
786-0 renal = tested on: 786-0 renal
A498 renal = tested on: A498 renal
A549 NSCLC = tested on: A549 NSCLC
ACHN renal = tested on: ACHN renal
BT-549 breast = tested on: BT-549 breast
CAKI-1 renal = tested on: CAKI-1 renal
CCRF-CEM leukemia = tested on: CCRF-CEM leukemia
COLO 205 colon = tested on: COLO 205 colon
DU-145 prostate = tested on: DU-145 prostate
EKVX NSCLC = tested on: EKVX NSCLC
HCC-2998 colon = tested on: HCC-2998 colon
HCT-116 colon = tested on: HCT-116 colon
HCT-15 colon = tested on: HCT-15 colon
HL-60(TB) leukemia = tested on: HL-60(TB) leukemia
HOP-62 NSCLC = tested on: HOP-62 NSCLC
HOP-92 NSCLC = tested on: HOP-92 NSCLC
HS 578T breast = tested on: HS 578T breast
HT29 colon = tested on: HT29 colon
IGROV1 ovarian = tested on: IGROV1 ovarian
K-562 leukemia = tested on: K-562 leukemia
KM12 colon = tested on: KM12 colon
LOX IMVI melanoma = tested on: LOX IMVI melanoma
M14 melanoma = tested on: M14 melanoma
MALME-3M melanoma = tested on: MALME-3M melanoma
MCF7 breast = tested on: MCF7 breast
MDA-MB-231 breast = tested on: MDA-MB-231 breast
MDA-MB-435 = tested on: MDA-MB-435
MOLT-4 leukemia = tested on: MOLT-4 leukemia
NCI-H226 lung = tested on: NCI-H226 lung

Structure (SMILES): Cc1cc(Nc2ncnc3ccc(NC4=NC(C)(C)CO4)cc23)ccc1Oc1ccn2ncnc2c1
- GI50 (786-0 renal): 20.1 µM and > 10 µM
- TGI (786-0 renal): > 81.5 µM
- GI50 (A498 renal): 4.1 µM and > 10 µM
- TGI (A498 renal): 24.8 µM and > 10 µM
- GI50 (A549 NSCLC): 14.9 µM and > 10 µM
- TGI (A549 NSCLC): 82.9 µM and > 10 µM
- GI50 (ACHN renal): 4.48 µM and 9.46 µM
- TGI (ACHN renal): > 100 µM
- GI50 (BT-549 breast): 14.1 µM and > 10 µM
- TGI (BT-549 breast): 39.5 µM and > 10 µM
- GI50 (CAKI-1 renal): 6.3 µM and > 10 µM
- TGI (CAKI-1 renal): > 61.1 µM
- GI50 (CCRF-CEM leukemia): 15.6 µM and > 10 µM
- TGI (CCRF-CEM leukemia): > 95.8 µM
- GI50 (COLO 205 colon): 14.3 µM and > 10 µM
- TGI (COLO 205 colon): 32.3 µM and > 10 µM
- GI50 (DU-145 prostate): 15.9 µM and > 10 µM
- TGI (DU-145 prostate): > 100 µM
- GI50 (EKVX NSCLC): 5.02 µM
- TGI (EKVX NSCLC): > 10 µM
- GI50 (HCC-2998 colon): 16.5 µM and > 10 µM
- TGI (HCC-2998 colon): 30.9 µM and > 10 µM
- GI50 (HCT-116 colon): 21.1 µM and > 10 µM
- TGI (HCT-116 colon): > 80.1 µM
- GI50 (HCT-15 colon): 8.92 µM and > 10 µM
- TGI (HCT-15 colon): > 65.9 µM
- GI50 (HL-60(TB) leukemia): 21 µM and > 10 µM
- TGI (HL-60(TB) leukemia): 46.1 µM and > 10 µM
- GI50 (HOP-62 NSCLC): 17.6 µM and > 10 µM
- TGI (HOP-62 NSCLC): 45.7 µM and > 10 µM
- GI50 (HOP-92 NSCLC): 3.69 µM and 4.24 µM
- TGI (HOP-92 NSCLC): 26.9 µM and > 10 µM
- GI50 (HS 578T breast): 15.2 µM and > 10 µM
- TGI (HS 578T breast): 62.4 µM and > 10 µM
- GI50 (HT29 colon): 14.4 µM and > 10 µM
- TGI (HT29 colon): 38.7 µM and > 10 µM
- GI50 (IGROV1 ovarian): 12.5 µM and > 10 µM
- TGI (IGROV1 ovarian): > 100 µM
- GI50 (K-562 leukemia): 17.1 µM and > 10 µM
- TGI (K-562 leukemia): > 100 µM
- GI50 (KM12 colon): 15.6 µM and > 10 µM
- TGI (KM12 colon): 32.1 µM and > 10 µM
- GI50 (LOX IMVI melanoma): 13.4 µM and > 10 µM
- TGI (LOX IMVI melanoma): 31.3 µM and > 10 µM
- GI50 (M14 melanoma): 14.6 µM and > 10 µM
- TGI (M14 melanoma): 33.1 µM and > 10 µM
- GI50 (MALME-3M melanoma): 14.7 µM and > 10 µM
- TGI (MALME-3M melanoma): 35.7 µM and > 10 µM
- GI50 (MCF7 breast): 13.7 µM and > 10 µM
- TGI (MCF7 breast): 31.5 µM and > 10 µM
- GI50 (MDA-MB-231 breast): 14.1 µM and > 10 µM
- TGI (MDA-MB-231 breast): 44.9 µM and > 10 µM
- GI50 (MDA-MB-435): 16.4 µM and > 10 µM
- TGI (MDA-MB-435): 36.9 µM and > 10 µM
- GI50 (MOLT-4 leukemia): 14.6 µM and > 10 µM
- TGI (MOLT-4 leukemia): 42.2 µM and > 10 µM
- GI50 (NCI-H226 lung): 16.6 µM and > 10 µM
- TGI (NCI-H226 lung): > 90.2 µM

From PubChem BioAssay (NCI)
